One molecule from patent US5846823A, “Expression of human D4 dopamine receptors in stable cell lines” (Allelix Biopharmaceuticals, priority 1996, dated 1998) can be followed below.

The test deals with T1, human D4 receptor (Homo sapiens, UniProt P21917, DEL265-296).
T1 construct: expressed in transfected cells
T1 sequence (P21917 with tags, fused parts or gaps DEL265-296): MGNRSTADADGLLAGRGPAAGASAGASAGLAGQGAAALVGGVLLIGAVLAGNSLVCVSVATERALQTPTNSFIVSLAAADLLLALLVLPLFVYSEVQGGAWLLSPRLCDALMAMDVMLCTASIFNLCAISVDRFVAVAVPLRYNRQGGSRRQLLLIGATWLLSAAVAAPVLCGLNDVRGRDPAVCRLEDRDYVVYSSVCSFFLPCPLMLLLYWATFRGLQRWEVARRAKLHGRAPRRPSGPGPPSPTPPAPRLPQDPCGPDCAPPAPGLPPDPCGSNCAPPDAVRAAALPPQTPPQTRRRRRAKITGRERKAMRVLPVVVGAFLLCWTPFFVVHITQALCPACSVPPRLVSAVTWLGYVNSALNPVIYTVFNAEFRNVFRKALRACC
The test can be described thus: [3H]Spiperone ligand binding assay (Scatchard analysis) on membranes of stable D4 cell line. Particulars: stably expressed human D4 receptor, Scatchard analysis (FIG. 4).

Each structure is given as a SMILES string.

Procedure: Cell membranes were prepared from 150 mM tissue culture dishes by suspending the cells in assay buffer [50 mM Tris-HCl, pH 7.4 containing 5 mM EDTA, 1.5 mM CaCl2, 5 mM MgCl2, 5 mM KCl, 120 NaCl]. The cells were homogenized using a Teflon pestle. Unbroken cells and nuclei were pelleted at 39,000×g for 15 minutes and the resulting pellet was resuspended in assay buffer at a concentration of 150-250 μg protein/ml.
Assays were terminated by washing 3×4 ml with cold 50 mM Tris-HCl, pH 7.4, followed by rapid filtration through a cell harvester and filters were monitored for tritium using the L56000SC (Beckman) counter. Binding data was analyzed using the GRAFIT software package.

Regarding `O=C(CCCN1CCC2(CC1)C(=O)NCN2c1ccccc1)c1ccc(F)cc1` [[^3 H]-labelled spiperone, spiperone], the “maximum spiperone-binding of the D4 receptor” value is given as 4,344 fmol/mg protein.
